Legend:
CYP143 = CYP143 (Mycobacterium tuberculosis, UniProt P9WPL3); settings: fragment 1 mM, P450 4-6 µM; relative to DMSO (416 nm)
CYP125 = CYP125 (Mycobacterium tuberculosis, UniProt P9WPP1); format: binding; settings: fragment 1 mM, P450 4-6 µM; Soret shift relative to DMSO (393 nm)
CYP142 = CYP142 (Mycobacterium tuberculosis, UniProt P9WPL5); settings: fragment 1 mM, P450 4-6 µM; relative to DMSO (418.5 nm)
CYP144 = CYP144 (Mycobacterium tuberculosis, UniProt P9WPL1); settings: fragment 1 mM, P450 4-6 µM; relative to DMSO (421 nm)
Chain of CYP144 (P9WPL1 whole entry, the tested form may be a part): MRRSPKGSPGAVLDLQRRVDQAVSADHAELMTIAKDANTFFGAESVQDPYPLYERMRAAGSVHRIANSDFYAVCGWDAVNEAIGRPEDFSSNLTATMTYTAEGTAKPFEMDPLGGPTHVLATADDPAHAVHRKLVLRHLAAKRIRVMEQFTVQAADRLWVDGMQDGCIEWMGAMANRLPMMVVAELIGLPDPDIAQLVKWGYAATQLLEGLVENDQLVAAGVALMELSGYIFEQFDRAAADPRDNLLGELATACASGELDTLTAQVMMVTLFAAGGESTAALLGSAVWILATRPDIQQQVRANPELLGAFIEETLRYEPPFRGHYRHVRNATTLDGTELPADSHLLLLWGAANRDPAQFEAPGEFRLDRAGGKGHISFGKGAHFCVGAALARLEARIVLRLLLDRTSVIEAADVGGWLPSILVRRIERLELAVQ

CYP121 = CYP121 (Mycobacterium tuberculosis, UniProt P9WPP7); settings: fragment 1 mM, P450 4-6 µM; relative to DMSO (417 nm)
Chain of CYP121 (P9WPP7 whole entry, the tested form may be a part): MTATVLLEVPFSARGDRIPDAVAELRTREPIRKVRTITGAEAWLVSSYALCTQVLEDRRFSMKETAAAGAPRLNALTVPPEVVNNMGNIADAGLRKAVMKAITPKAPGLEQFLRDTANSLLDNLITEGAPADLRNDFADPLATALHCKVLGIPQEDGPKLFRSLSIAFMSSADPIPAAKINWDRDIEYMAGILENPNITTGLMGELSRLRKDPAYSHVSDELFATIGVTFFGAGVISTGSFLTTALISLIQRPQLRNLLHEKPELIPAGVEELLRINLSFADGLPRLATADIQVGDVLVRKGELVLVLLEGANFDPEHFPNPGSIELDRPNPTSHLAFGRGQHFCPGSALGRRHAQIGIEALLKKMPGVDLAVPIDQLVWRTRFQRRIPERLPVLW

CYP124 = CYP124 (Mycobacterium tuberculosis, UniProt P9WPP3); settings: fragment 1 mM, P450 4-6 µM; relative to DMSO (419 nm)
Chain of CYP124 (P9WPP3 whole entry, the tested form may be a part): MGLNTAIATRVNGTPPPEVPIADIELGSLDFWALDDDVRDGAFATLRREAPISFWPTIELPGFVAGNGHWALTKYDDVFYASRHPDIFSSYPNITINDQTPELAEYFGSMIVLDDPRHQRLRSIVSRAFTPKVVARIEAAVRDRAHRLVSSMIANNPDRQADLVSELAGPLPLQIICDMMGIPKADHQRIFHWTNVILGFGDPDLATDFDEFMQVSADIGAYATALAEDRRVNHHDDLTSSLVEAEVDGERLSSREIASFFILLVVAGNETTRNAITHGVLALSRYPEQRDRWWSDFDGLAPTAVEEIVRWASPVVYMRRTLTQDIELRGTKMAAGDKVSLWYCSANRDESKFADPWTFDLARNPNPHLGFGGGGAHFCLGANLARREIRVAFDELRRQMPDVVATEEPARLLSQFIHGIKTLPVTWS

CYP126 = CYP126 (Mycobacterium tuberculosis, UniProt P9WPN9); settings: fragment 1 mM, P450 4-6 µM; relative to DMSO (418 nm)
Chain of CYP126 (P9WPN9 whole entry, the tested form may be a part): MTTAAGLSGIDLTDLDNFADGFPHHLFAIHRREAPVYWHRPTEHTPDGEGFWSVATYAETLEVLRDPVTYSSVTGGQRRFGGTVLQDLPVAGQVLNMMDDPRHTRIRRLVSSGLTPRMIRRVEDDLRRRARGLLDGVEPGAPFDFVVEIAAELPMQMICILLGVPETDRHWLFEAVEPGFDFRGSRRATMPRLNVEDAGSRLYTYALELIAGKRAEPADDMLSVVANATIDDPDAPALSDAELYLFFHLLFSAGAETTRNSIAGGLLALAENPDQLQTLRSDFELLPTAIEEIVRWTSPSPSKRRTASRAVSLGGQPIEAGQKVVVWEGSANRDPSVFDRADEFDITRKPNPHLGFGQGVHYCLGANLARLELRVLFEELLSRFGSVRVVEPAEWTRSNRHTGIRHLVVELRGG

Chain of CYP142 (P9WPL5 whole entry, the tested form may be a part): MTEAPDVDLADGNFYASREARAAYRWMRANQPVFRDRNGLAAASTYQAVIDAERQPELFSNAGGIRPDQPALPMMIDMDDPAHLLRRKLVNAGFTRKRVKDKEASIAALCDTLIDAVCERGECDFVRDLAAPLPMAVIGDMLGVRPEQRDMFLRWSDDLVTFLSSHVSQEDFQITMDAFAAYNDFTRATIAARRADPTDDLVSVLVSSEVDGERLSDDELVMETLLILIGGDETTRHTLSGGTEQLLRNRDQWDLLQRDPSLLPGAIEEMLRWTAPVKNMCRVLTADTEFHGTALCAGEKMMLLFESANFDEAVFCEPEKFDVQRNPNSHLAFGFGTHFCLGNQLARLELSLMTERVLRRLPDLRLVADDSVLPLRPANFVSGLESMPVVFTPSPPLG
Chain of CYP125 (P9WPP1 whole entry, the tested form may be a part): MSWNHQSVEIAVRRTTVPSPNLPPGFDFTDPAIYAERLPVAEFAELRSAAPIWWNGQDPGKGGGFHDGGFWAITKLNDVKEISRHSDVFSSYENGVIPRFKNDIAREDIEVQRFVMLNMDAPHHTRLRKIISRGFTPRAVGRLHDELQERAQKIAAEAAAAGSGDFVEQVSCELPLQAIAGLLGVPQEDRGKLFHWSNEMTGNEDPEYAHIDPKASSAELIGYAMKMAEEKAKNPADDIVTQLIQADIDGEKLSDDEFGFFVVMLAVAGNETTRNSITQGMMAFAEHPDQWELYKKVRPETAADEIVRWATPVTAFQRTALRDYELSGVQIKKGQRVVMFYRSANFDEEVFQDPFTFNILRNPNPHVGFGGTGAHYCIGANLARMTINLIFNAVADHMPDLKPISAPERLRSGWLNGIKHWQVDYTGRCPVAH
Chain of CYP143 (P9WPL3 whole entry, the tested form may be a part): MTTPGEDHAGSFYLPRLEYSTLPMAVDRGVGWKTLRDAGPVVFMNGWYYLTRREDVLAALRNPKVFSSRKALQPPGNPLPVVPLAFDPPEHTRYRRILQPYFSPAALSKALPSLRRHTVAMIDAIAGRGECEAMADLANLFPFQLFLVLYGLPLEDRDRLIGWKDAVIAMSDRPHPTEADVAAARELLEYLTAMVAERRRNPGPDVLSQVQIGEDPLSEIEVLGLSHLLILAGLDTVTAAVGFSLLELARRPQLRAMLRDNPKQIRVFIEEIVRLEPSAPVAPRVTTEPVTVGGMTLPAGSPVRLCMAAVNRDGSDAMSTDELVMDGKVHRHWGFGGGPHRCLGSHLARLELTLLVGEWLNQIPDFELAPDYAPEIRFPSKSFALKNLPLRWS

Compound | Δλmax (nm) CYP143, fragment screen (CYP143) [nm] | Δλmax (nm) CYP125, fragment screen (CYP125) [nm] | Δλmax (nm) CYP142, fragment screen (CYP142) [nm] | Δλmax (nm) CYP144, fragment screen (CYP144) [nm] | Δλmax (nm) CYP121, fragment screen (CYP121) [nm] | Δλmax (nm) CYP124, fragment screen (CYP124) [nm] | Δλmax (nm) CYP126, fragment screen (CYP126) [nm]
Nc1cccc(Cn2cncn2)c1 [compound 5] | 1 | 0 | 1.5 | 0 | 2 | 1 | 0
c1ccc(-c2ncc[nH]2)cc1 [compound 4] | 0 | 0 | 0 | 0 | 0 | 0 | 0
N#Cc1ccncc1 [compound 41] | -0.5 | 0 | 0 | 0 | 0 | 0 | 0
Nc1ccc(Oc2ccccc2)nc1 [compound 48] | 0.5 | 0 | 1.5 | 0 | 1 | -1 | 2
O=c1ccc(Br)c[nH]1 [compound 58] | 0.5 | 0 | 0 | 0 | 0 | 0 | -1
Cc1ccc(S(N)(=O)=O)nc1 [compound 80] | 0 | 0 | 0 | 0 | 0 | 0 | 0
Cn1nc(C(=O)O)cc1-c1ccccc1 [compound 70] | 0.5 | 0 | 0 | 0 | 0 | 2 | 0
Clc1nccc2ccccc12 [compound 56] | -0.5 | 0 | 0 | 0 | -2 | 0 | 0
Nc1cc(-c2ccc(Cl)cc2)n[nH]1 [compound 12] | 0 | -2 | 0 | 0 | 2 | -1 | 1
O=C(O)c1cccc(-c2cccnc2)c1 [compound 74] | 1 | 0 | 0 | 0 | 0 | 0 | 0
Nc1ccc(Br)cn1 [compound 23] | 0.5 | 0 | 0 | 0 | -1 | 0 | 0
N#Cc1ccccn1 [compound 40] | 0.5 | 0 | 0 | 0 | 0 | 0 | 0
c1ccc(-c2c[nH]cn2)cc1 [compound 68] | 2 | 0 | 3 | 0 | 0 | 4 | 1
CCc1nc(C)c[nH]1 [compound 67] | 0 | 0 | 0 | 0 | -1 | 0 | 0
Nc1ccccn1 [compound 43] | 1 | 0 | 0 | 0 | 0 | 0 | 0
O=S(=O)(O)c1ccccn1 [compound 78] | 1 | 0 | 0 | 0 | 0 | 0 | 0
Cc1cc(C(=O)O)[nH]n1 [compound 32] | -0.5 | 0 | 0 | 0 | 0 | 0 | 0
NC1=NN(c2ccccc2)C(=O)C1 [compound 13] | 0 | 0 | 0 | 0 | 0 | -1 | 0
C#Cc1cccnc1 [compound 75] | 0 | 0 | 0 | 0 | 0 | 0 | 0
N#Cc1cccc(-n2ccnc2)c1 [compound 71] | 2.5 | 0 | 3 | 0 | 0 | 1 | 0
Nc1cc(Cl)nc(Cl)c1 [compound 28] | 0 | 0 | 0 | 0 | 0 | 0 | 0
c1ccc(-c2cc[nH]n2)cc1 [compound 35] | 1 | -2 | 0 | 0 | 0 | -1 | 0
O=C(O)c1ccc(-n2cccn2)cc1 [compound 54] | -0.5 | 0 | 0 | 0 | 0 | 0 | -1
OCc1ccc(-c2ccncc2)cc1 [compound 8] | 1 | 25 | 0 | 0 | 1 | 1 | 3
c1ccc2c(c1)CCNC2 [compound 39] | 1 | 0 | 1.5 | 0 | 0 | 2 | 0
Cc1cc(C)n(-c2ccc(N)cc2)n1 [compound 16] | 0.5 | 0 | 0 | 0 | -1 | 0 | 0
OB(O)c1ccccc1 [compound 33] | 4 | 0 | 0 | 0 | 0 | 0 | 0
Nc1ccc(Cl)nn1 [compound 73] | 0 | 0 | 0 | 0 | 0 | 0 | 0
